# Entries after “also recorded” stand apart in the source; their conditions may differ. Like-named read-outs stand apart in the source and are kept apart here.
# What was measured:
# A549 = test: WST-1 cytotoxicity, A549; type: cell-based, human; conditions: Homo sapiens
# Description: (§1) Two different cytotoxicity/proliferation kit was used in this study i.e., WST-1 proliferation assay kit (Roche, Indianapolis, IN, USA; Cat #28620000) and Cell-titer Glo-luminescent cell viability assay (Promega, WI, USA; Cat #0000348721). Majority of the cell proliferation/cytotoxicity experiments were performed with WST-1 assay. Briefly, cells were seeded at the indicated density for 24 h in 96 well plate, media was replaced, and subsequently treated with the test compounds at different doses. […] Cell titer Glo-assay was additionally performed in certain cases to validate the results from WST-1 assay as outlined above following manufacturer's instructions and luminescence was measured using a FLx100 Luminometer (CLARIOSTAR®, Ortenbery, Germany). […] Other proliferation/cytotoxicity assays were also carried out i.e., Quant™-iT PicoGreen ds DNA assay kit (Thermo Scientific, Rockwood, TN, USA, P7589) following manufacturer's instructions, Trypan blue (Sigma, Ayrshire, UK, T8154) and acid phosphatase assay for validation of cytotoxicity/proliferation data from other assays.
# H661 = test: WST-1 cytotoxicity, H661; type: cell-based, human; conditions: Homo sapiens
# Description: as §1
# H1299 = test: WST-1 cytotoxicity, H1299; type: cell-based, human; conditions: Homo sapiens
# Description: as §1
# U1906E = test: WST-1 cytotoxicity, U1906E; type: cell-based; conditions: Homo sapiens, 24 h, read-out: Calculated IC50 values
# Description: as §1
# U1906L = test: WST-1 cytotoxicity, U1906L; type: cell-based; conditions: Homo sapiens, 24 h, read-out: Calculated IC50 values
# Description: as §1
# NB4 = test: WST-1 cytotoxicity, NB4; type: cell-based, human; conditions: Homo sapiens
# Description: as §1
# HL60 = test: WST-1 cytotoxicity and synergy analysis, HL60; type: cell-based, human; conditions: Homo sapiens
# Description: as §1
# THP-1 = test: WST-1 cytotoxicity, THP-1; type: cell-based; conditions: Homo sapiens, THP-1, 24 h, read-out: Calculated IC50 values
# Description: as §1
# Kasumi 6 = test: WST-1 cytotoxicity, Kasumi 6; type: cell-based; conditions: Homo sapiens, alone, 24 h, read-out: Calculated IC50 values
# Description: as §1
# AML193 = test: WST-1 cytotoxicity, AML193; type: cell-based; conditions: Homo sapiens, 24 h, read-out: Calculated IC50 values
# Description: as §1
# HepG2 = test: WST-1 cytotoxicity, HepG2; type: cell-based; conditions: Homo sapiens, HepG2, 24 h, read-out: Calculated IC50 values
# Hep3B = test: WST-1 cytotoxicity, Hep3B; type: cell-based; conditions: Homo sapiens, 24 h, read-out: Calculated IC50 values
# Description: as §1
# HUH7 = test: WST-1 cytotoxicity, HUH7; type: cell-based; conditions: Homo sapiens, Huh-7, 24 h, read-out: Calculated IC50 values
# Description: as §1
# SHSY5-SY = test: WST-1 cytotoxicity, SHSY5-SY; type: cell-based; conditions: Homo sapiens, 24 h, read-out: Calculated IC50 values
# Description: as §1
# SNB-19 = test: WST-1 cytotoxicity, SNB-19; type: cell-based; conditions: Homo sapiens, SNB-19, 24 h, read-out: Calculated IC50 values
# Description: as §1
# 8-MGBA = test: WST-1 cytotoxicity, 8-MGBA; type: cell-based; conditions: Homo sapiens, 8-MG-BA, 24 h, read-out: Calculated IC50 values
# Description: as §1
# LS174T = test: WST-1 cytotoxicity, LS174T; type: cell-based; conditions: Homo sapiens, 24 h, read-out: Calculated IC50 values
# Description: as §1
# HeLa = test: WST-1 cytotoxicity, HeLa; type: cell-based; conditions: Homo sapiens, 24 h, read-out: Calculated IC50 values
# Description: as §1
# MCF-7 = test: WST-1 cytotoxicity, MCF-7; type: cell-based, human; conditions: Homo sapiens
# Description: as §1
# PANC-1 = test: WST-1 cytotoxicity, PANC-1; type: cell-based; conditions: Homo sapiens, PANC-1, 24 h, read-out: Calculated IC50 values
# Description: as §1
# A375 = test: WST-1 cytotoxicity, A375; type: cell-based; conditions: Homo sapiens, A-375, 24 h, read-out: Calculated IC50 values
# Description: as §1
# IGROV1 = test: WST-1 cytotoxicity, IGROV1; type: cell-based, human; conditions: Homo sapiens, IGROV-1, 24 h, read-out: Calculated IC50 values
# Description: as §1
# OV2008 = test: WST-1 cytotoxicity, OV2008; type: cell-based; conditions: Homo sapiens, 24 h, read-out: Calculated IC50 values
# Description: as §1
# [1] = Toxicity in black mice (C57BL/6), 3 weeks; type: in vivo; conditions: sodium selenite or selenocystine 3 mg/kg, alone or with diphenyl diselenide 50 and 100 mg/kg
# Description: Black mice (C57BJ/6) mice were treated perorally every second day with either vehicle (canola oil) or diphenyl diselenide at two different dose levels (50 and 100 mg/kg body weight) for 3 weeks. Final body weight and weight of the major organs were measured at necropsy.
# Black mice (C57BJ/6) mice were treated with vehicle (PBS i.p. and canola oil p.o.), sodium selenite (3 mg/kg body weight), selenocystine (3 mg/kg body weight), or in combinations with two different doses of diphenyl diselenide (50 and 100 mg/kg body weight) for 3 weeks. Final body weight and weight of the major organs were measured at necropsy.
# [2] = cited from earlier work
# [3] = tested on: Primary peripheral blood mononuclear cells; test: WST-1 cytotoxicity, primary PBMCs; conditions: Homo sapiens, PBMC, 24 h, read-out: Calculated IC50 values
# [4] = tested on: Primary Human hepatocytes; test: WST-1 cytotoxicity, primary human hepatocytes; conditions: Hepatocyte, 24 h, read-out: Calculated IC50 values
# [5] = tested on: 23 different human cell lines of multiple cancer origins; test: Cytotoxicity across the cancer cell line panel (summary statements); type: cell-based; conditions: 5 μM; cancer cell lines of Table 2
# Description: as §1
# H1299 cells = test: Cellular total selenium uptake by ICP-MS; type: cell-based, human; conditions: 6 h
# Description: H1299 cells were treated with the indicated concentrations of different selenium compounds either alone or in combinations for 6 h. At the end of the treatment, cells were washed 3-times with cold PBS and collected. Cell pellets were digested and the total selenium concentration was measured using ICP-MS. […] Increased selenium delivery to the cells by diphenyl diselenide warrants increased cytotoxicity in cancer cells, as outlined before.
# [6] = tested on: extracellular reduced thiols; test: Extracellular thiols measurement (DTDP method); type: cell-based, human
# Description: Cell culture media was collected at specified time points after incubation with the respective compounds as described in the respective figure legends and extracellular total thiols were measured using the DTDP method 19. The protocol was adjusted to 96-well plate format. […] Absorbance was measured at 324 nm in a spectrophotometer (PowerWave HT, BioTek, VT, USA). The assay mixture with fresh media was used as a blank.
# [7] = tested on: GSH and CySH in HL60 cells; test: Intracellular and extracellular thiols by HPLC; type: cell-based, human; conditions: listed as DPDS
# Description: HPLC was performed as described by Luo et al. 21. Samples and standards were derivatized using monobromobimane (Calbiochem, La Jolla, CA) in sodium N-ethylmorpholine. Aliquots of the derivatized samples were filtered using a 0.22 μm Millipore filter. Glutathione (GSH), cysteine (CySH) and g-glutamylcysteine (7-GC) concentrations were then analyzed using high-performance liquid chromatography (HPLC). Both the total and reduced forms were measured. The HPLC separation, of the thiol-bimane adducts, was achieved on a column (4.5×150 mm) packed with 3-μm octadecyl-silica reversed-phase resin (Supelco, Inc., Bellefonte, PA) followed by fluorescent detection at excitation 394 nm and emission 480 nm (Millipore Co., Milford, MA). The system consisted of a Waters 625 LC pump system, a Waters 470 scanning fluorescence detector, and a Waters 717 Ultra WISP sample processor (Millipore, Milford, MA). Elution solvent A was 7.0% aqueous acetonitrile containing 0.25% acetic acid and perchloric acid; the final pH was adjusted to 3.76 with sodium hydroxide. Elution solvent B was 75% acetonitrile. The flow rate was 1.0 ml/min. The derivatives of GSH, CySH and 7-GC were then quantified based on peak areas and compared with standards. The CV for this method is 2.6%.
# HMOX and NQO1 = test: mRNA expression of NFE2L2 target genes; type: cell-based, human; conditions: early time point
# [8] = tested on: cystathionine gamma lyase; test: RNA-sequencing; type: cell-based; conditions: RNA-sequencing data
# [9] = tested on: Primary Human hepatocytes
# SLC7A11 = SLC7A11 mRNA expression (qRT-PCR); conditions: HL60 and H1299 cells; listed as DPDS
# [10] = tested on: splenocytes comprising normal and leukemic cells; test: Frequency of normal and leukemic splenocytes by flow cytometry (CD45.1); conditions: 50.0 μM; 67 h
# Description: Primary mice leukemic cells (CD45.1 background) bearing human MLL-AF9 oncogene were transplanted into healthy secondary mice (CD45.2 background). Following leukemia development in these mice, spleens were collected following euthanasia. Splenocytes, comprising both normal and leukemic cells, were isolated and cultured ex vivo in 24 well plates (1.5×10^6 cells/0.5 ml/well) for 12 h prior to exposing with the indicated compounds for another 67 h. At the end of the exposure, relative frequency of normal (CD45.1 negative) and leukemic (CD45.1 positive) cells were determined using flow cytometry.
# [11] = at 10.2 mg/m2 intravenously, human
smiles,measurement,setting,value
"O=[Se](O)O [Sodium selenite, sodium selenite]",IC50,"A549; A549, 24 h, read-out: Calculated IC50 values",2.86 µM
same,IC50,"H661; NCI-H661, 24 h, read-out: Calculated IC50 values",53.1 µM
same,IC50,"H661; NCI-H661, read-out: Calculated IC50 values of sodium selenite",53.1 µM
same,IC50,"H1299; NCI-H1299, 24 h, read-out: Calculated IC50 values",5.25 µM
same,IC50,"H1299; NCI-H1299, read-out: Calculated IC50 values of sodium selenite",5.25 µM
same,IC50,U1906E,2.44 µM
same,IC50,U1906L,1.58 µM
same,IC50,"NB4; NB-4, 24 h, read-out: Calculated IC50 values",24.6 µM
same,IC50,"NB4; NB-4, read-out: Calculated IC50 values of sodium selenite",24.6 µM
same,IC50,"HL60; HL-60, 24 h, read-out: Calculated IC50 values",16 µM
same,IC50,"HL60; HL-60, read-out: Calculated IC50 values of sodium selenite",16 µM
same,IC50,THP-1,0.79 µM
same,IC50,Kasumi 6,25.7 µM
same,IC50,AML193,6.78 µM
same,IC50,HepG2,7.58 µM
same,IC50,Hep3B,1.65 µM
same,IC50,HUH7,3.53 µM
same,IC50,SHSY5-SY,40.3 µM
same,IC50,SNB-19,5.35 µM
same,IC50,8-MGBA,4.29 µM
same,IC50,LS174T,3.6 µM
same,IC50,HeLa,0.64 µM
same,IC50,"MCF-7; MCF7, 24 h, read-out: Calculated IC50 values",8.55 µM
same,IC50,"MCF-7; MCF7, read-out: Calculated IC50 values of sodium selenite",8.55 µM
same,IC50,PANC-1,7.87 µM
same,IC50,A375,6.14 µM
same,IC50,IGROV1,5.08 µM
same,IC50,OV2008,3.7 µM
same,toxic effects (body and organ weight at necropsy),[1],No demonstrated toxic effects could be observed
same,dose-limiting toxicity,[2]; [11],No dose-limiting toxicity
same,peak plasma total selenium concentrations,[2]; [11],15.0 to 23.0 µM
same,plasma concentration (sodium selenite equivalent) that can be reached,"[2]; high dose intravenous administration, earlier clinical studies",> 20 µM
same,Maximum-tolerated dose levels,"[2]; intravenously administered, human",10.2 mg/m2
same,human tolerance limit,"[2]; intravenously for two weeks, phase I trial NCT01959438",10 mg sodium selenite/m^2 surface area/day
same,IC50,[3],35 µM
same,IC50,[4],202 µM
"c1ccc([Se][Se]c2ccccc2)cc1 [Diphenyl diselenide, diphenyl diselenide]",IC50,"A549; A549 (Lung), compound alone, 24 h, '>' = dose approximation, read-out: IC50 values",91.1 µM
same,IC50,"H661; NCI-H661, H661 (Lung), compound alone, 24 h, '>' = dose approximation, read-out: IC50 values",47.2 µM
same,IC50,"H1299; NCI-H1299, H1299 (Lung), compound alone, 24 h, '>' = dose approximation, read-out: IC50 values",26.2 µM
same,IC50,"NB4; NB-4, NB4 (Leukemia), compound alone, 24 h, '>' = dose approximation, read-out: IC50 values",39.5 µM
same,IC50,"HL60; HL-60, HL60 (Leukemia), compound alone, 24 h, '>' = dose approximation, read-out: IC50 values",38.4 µM
same,IC50,"MCF-7; MCF7 (Breast), compound alone, 24 h, '>' = dose approximation, read-out: IC50 values",42.7 µM
same,toxicity at the specified dose,[5],non-toxic
same,selenium uptake from sodium selenite or selenocystine,H1299 cells,dramatically increases selenium uptake
same,extracellular reduced thiols,"[6]; HEK293 ATF4 reporter cells, 5.0 μM",no changes
same,extracellular reduced thiols,"[6]; all the tested cell lines, H1299 and HL60",highly effective
same,intracellular GSH levels and extracellular CySH levels,[7],increased levels of intracellular GSH; also recorded: increases
same,expression of HMOX and NQO1,HMOX and NQO1,significantly induced
same,expression of cystathionine gamma lyase,[8],increased
same,toxicity to normal human cells,[9],non-toxic
same,SLC7A11 expression,SLC7A11,Increased SLC7A11 expression; also recorded: potent inducer
same,frequency of either normal or leukemic cells,[10],marginal inhibitory effect
